# Laboratory results from ChEMBL document CHEMBL3046903, “Systemic action of novel neonicotinoid insecticide IPP-10 and its effect on the feeding behaviour of Rhopalosiphum padi on wheat” (2010).
# Active and inactive are the calls of the source. The calls are words filed in the database; no cut-off is given here.
# Tests used:
# Rhopalosiphum padi [1] = assay: Toxicity against Rhopalosiphum padi infested wheat plant applied to the roots measured after 24 hr; type: functional
# Rhopalosiphum padi [2] = assay: Insecticidal activity against adult Rhopalosiphum padi infested wheat plant assessed as reduction in occurrences of phloem ingestion at 2 mg/l applied to the roots for 6 hr by electrical penetration graphical analysis relative to control; type: functional, organism-based
# Rhopalosiphum padi [3] = assay: Insecticidal activity against adult Rhopalosiphum padi infested wheat plant assessed as reduction in occurrences of phloem ingestion at 0.4 mg/l applied to the roots for 6 hr by electrical penetration graphical analysis relative to control; type: functional, organism-based
# Rhopalosiphum padi [4] = assay: Insecticidal activity against adult Rhopalosiphum padi infested wheat plant assessed as time taken for first xylem ingestion occurrence at 0.4 mg/l applied to the roots for 6 hr by electrical penetration graphical analysis (reference value: 145.5 +/- 27.1 min); type: functional
# Rhopalosiphum padi [5] = assay: Toxicity against Rhopalosiphum padi infested wheat plant assessed as mortality at 1000 mg/l applied to upper plant for 1 min followed by basipetal transportation for 48 hr measured 48 hr after removal of upper plant parts relative to control; type: functional
# Rhopalosiphum padi [6] = assay: Insecticidal activity against adult Rhopalosiphum padi infested wheat plant assessed as frequency of phloem ingestion at 0.4 mg/l applied to the roots for 6 hr by electrical penetration graphical analysis (reference value: 2.85 +/- 0.18 Hz); type: functional
# Rhopalosiphum padi [7] = assay: Insecticidal activity against adult Rhopalosiphum padi infested wheat plant assessed as reduction in occurrences of salivation into sieve elements at 2 mg/l applied to the roots for 6 hr by electrical penetration graphical analysis relative to control; type: functional, organism-based
# Rhopalosiphum padi [8] = assay: Toxicity against Rhopalosiphum padi infested wheat plant assessed as mortality at 1000 mg/l applied to upper plant for 1 min followed by basipetal transportation for 48 hr measured 24 hr after removal of upper plant parts relative to control; type: functional
# Rhopalosiphum padi [9] = assay: Insecticidal activity against adult Rhopalosiphum padi infested wheat plant assessed as bout duration of salivation into sieve elements at 2 mg/l applied to the roots for 6 hr by electrical penetration graphical analysis (reference value: 32.4 +/- 3 secs); type: functional
# Rhopalosiphum padi [10] = assay: Insecticidal activity against adult Rhopalosiphum padi infested wheat plant assessed as reduction in occurrences of salivation into sieve elements at 0.4 mg/l applied to the roots for 6 hr by electrical penetration graphical analysis relative to control; type: functional, organism-based
# Rhopalosiphum padi [11] = assay: Insecticidal activity against adult Rhopalosiphum padi infested wheat plant assessed as reduction in xylem ingestion at 2 mg/l applied to the roots for 6 hr by electrical penetration graphical analysis relative to control; type: functional, organism-based
# Rhopalosiphum padi [12] = assay: Toxicity against Rhopalosiphum padi infested wheat plant assessed as mortality at 1000 mg/l applied to upper plant for 1 min followed by basipetal transportation for 24 hr measured 48 hr after removal of upper plant parts relative to control; type: functional
# Rhopalosiphum padi [13] = assay: Insecticidal activity against adult Rhopalosiphum padi infested wheat plant assessed as total time of xylem ingestion at 2 mg/l applied to the roots for 6 hr by electrical penetration graphical analysis (reference value: 23.1 +/- 4.5 min); type: functional
# Rhopalosiphum padi [14] = assay: Insecticidal activity against adult Rhopalosiphum padi infested wheat plant assessed as frequency of xylem ingestion at 0.4 mg/l applied to the roots for 6 hr by electrical penetration graphical analysis (reference value: 8.2 +/- 0.3 Hz); type: functional
# Rhopalosiphum padi [15] = assay: Insecticidal activity against adult Rhopalosiphum padi infested wheat plant assessed as bout duration of salivation into sieve elements at 0.4 mg/l applied to the roots for 6 hr by electrical penetration graphical analysis (reference value: 32.4 +/- 3 secs); type: functional
# Rhopalosiphum padi [16] = assay: Insecticidal activity against adult Rhopalosiphum padi infested wheat plant assessed as reduction in xylem ingestion at 0.4 mg/l applied to the roots for 6 hr by electrical penetration graphical analysis relative to control; type: functional, organism-based
# Rhopalosiphum padi [17] = assay: Toxicity against first-instar nymph of Rhopalosiphum padi assessed as time until reproductive maturity at 0.4 mg/l applied to roots (reference value: 6.6 +/- 0.52 days); type: functional
# Rhopalosiphum padi [18] = assay: Insecticidal activity against adult Rhopalosiphum padi infested wheat plant assessed as bout duration of xylem ingestion at 0.4 mg/l applied to the roots for 6 hr by electrical penetration graphical analysis (reference value: 20.4 +/- 4.5 min); type: functional
# Rhopalosiphum padi [19] = assay: Insecticidal activity against adult Rhopalosiphum padi infested wheat plant assessed as total time of xylem ingestion at 0.4 mg/l applied to the roots for 6 hr by electrical penetration graphical analysis (reference value: 23.1 +/- 4.5 min); type: functional
# Rhopalosiphum padi [20] = assay: Contact toxicity against Rhopalosiphum padi infested wheat plant applied as spray measured after 24 hr; type: functional
# Rhopalosiphum padi [21] = assay: Toxicity against Rhopalosiphum padi infested wheat plant applied to the roots measured after 48 hr; type: functional
# Rhopalosiphum padi [22] = assay: Insecticidal activity against adult Rhopalosiphum padi infested wheat plant assessed as bout duration of phloem ingestion at 0.4 mg/l applied to the roots for 6 hr by electrical penetration graphical analysis (reference value: 277.2 +/- 30.8 min); type: functional
# Rhopalosiphum padi [23] = assay: Insecticidal activity against adult Rhopalosiphum padi infested wheat plant assessed as total time of phloem ingestion at 2 mg/l applied to the roots for 6 hr by electrical penetration graphical analysis (reference value: 296.4 +/- 39.3 min); type: functional
# Rhopalosiphum padi [24] = assay: Insecticidal activity against adult Rhopalosiphum padi infested wheat plant assessed as total time of phloem ingestion at 0.4 mg/l applied to the roots for 6 hr by electrical penetration graphical analysis (reference value: 296.4 +/- 39.3 min); type: functional
# Rhopalosiphum padi [25] = assay: Insecticidal activity against adult Rhopalosiphum padi infested wheat plant assessed as time taken for first phloem activity occurrence at 0.4 mg/l applied to the roots for 6 hr by electrical penetration graphical analysis (reference value: 141.9 +/- 18.1 min); type: functional
# Rhopalosiphum padi [26] = assay: Insecticidal activity against adult Rhopalosiphum padi infested wheat plant assessed as total time of salivation into sieve elements at 0.4 mg/l applied to the roots for 6 hr by electrical penetration graphical analysis (reference value: 35.4 +/- 6.8 secs); type: functional
# Rhopalosiphum padi [27] = assay: Toxicity against first-instar nymph of Rhopalosiphum padi assessed as reduction in weight at 0.4 mg/l applied to roots measured after 7 days relative to control; type: functional, organism-based
# Rhopalosiphum padi [28] = assay: Insecticidal activity against adult Rhopalosiphum padi infested wheat plant assessed as bout duration of xylem ingestion at 2 mg/l applied to the roots for 6 hr by electrical penetration graphical analysis (reference value: 20.4 +/- 4.5 min); type: functional
# Rhopalosiphum padi [29] = assay: Toxicity against first-instar nymph of Rhopalosiphum padi assessed as reduction in reproductive rate at 0.4 mg/l applied to roots measured after 16 days relative to control; type: functional, organism-based
# Rhopalosiphum padi [30] = assay: Insecticidal activity against adult Rhopalosiphum padi infested wheat plant assessed as total time of salivation into sieve elements at 2 mg/l applied to the roots for 6 hr by electrical penetration graphical analysis (reference value: 35.4 +/- 6.8 secs); type: functional
# Rhopalosiphum padi [31] = assay: Insecticidal activity against adult Rhopalosiphum padi infested wheat plant assessed as bout duration of phloem ingestion at 2 mg/l applied to the roots for 6 hr by electrical penetration graphical analysis (reference value: 277.2 +/- 30.8 min); type: functional
# Rhopalosiphum padi [32] = assay: Toxicity against Rhopalosiphum padi infested wheat plant assessed as mortality at 1000 mg/l applied to upper plant for 1 min followed by basipetal transportation for 24 hr measured 24 hr after removal of upper plant parts relative to control; type: functional
smiles,measurement,setting,value
CC1CC(O)N2CCN(Cc3ccc(Cl)nc3)C2=C1[N+](=O)[O-] (centres undefined),LC15,Rhopalosiphum padi [1],0.4 µg/mL
same,LC50,"Rhopalosiphum padi [1]; Rhopalosiphum padi, 24 h",23.4 µg/mL
same,Activity,Rhopalosiphum padi [2],Active
same,Activity,Rhopalosiphum padi [3],inactive
same,Time,Rhopalosiphum padi [4],141.5 min
same,Activity,Rhopalosiphum padi [5],59.9%
same,Activity,Rhopalosiphum padi [6],1.96 Hz
same,Activity,Rhopalosiphum padi [7],Active
same,Activity,Rhopalosiphum padi [8],18.4%
same,Time,Rhopalosiphum padi [9],0 s
same,Activity,Rhopalosiphum padi [10],inactive
same,Activity,Rhopalosiphum padi [11],Active
same,Activity,Rhopalosiphum padi [12],33.2%
same,Time,Rhopalosiphum padi [13],0 min
same,Activity,Rhopalosiphum padi [14],7.03 Hz
same,Time,Rhopalosiphum padi [15],59.5 s
same,Activity,Rhopalosiphum padi [16],inactive
same,Time,Rhopalosiphum padi [17],8.39 days
same,Time,Rhopalosiphum padi [18],9.7 min
same,Time,Rhopalosiphum padi [19],10.4 min
same,LC50,Rhopalosiphum padi [20],2.45 µg/mL
same,LC15,Rhopalosiphum padi [21],0.09 µg/mL
same,LC50,"Rhopalosiphum padi [21]; Rhopalosiphum padi, 48 h",2.4 µg/mL
same,Time,Rhopalosiphum padi [22],206.8 min
same,Time,Rhopalosiphum padi [23],0 min
same,Time,Rhopalosiphum padi [24],218.8 min
same,Time,Rhopalosiphum padi [25],139.8 min
same,Time,Rhopalosiphum padi [26],64.3 s
same,Activity,Rhopalosiphum padi [27],Active
same,Time,Rhopalosiphum padi [28],0 min
same,Activity,Rhopalosiphum padi [29],Active
same,Time,Rhopalosiphum padi [30],0 s
same,Time,Rhopalosiphum padi [31],0 min
same,Activity,Rhopalosiphum padi [32],14.3%
O=[N+]([O-])/N=C1\NCCN1Cc1ccc(Cl)nc1 [IMIDACLOPRID],Activity,Rhopalosiphum padi [5],7.1%
same,Activity,Rhopalosiphum padi [8],3.5%
same,Activity,Rhopalosiphum padi [12],6.7%
same,LC50,Rhopalosiphum padi [20],0.9 µg/mL
same,Activity,Rhopalosiphum padi [32],3.1%
